US20190380980A1, “A Method For Treating Peripheral Inflammatory Disease” (Dublin City University, priority 2015, published 2019)

Test system: Bone marrow derived dendritic cells (BMDCs)
Assay: In vitro screening of oleamide and analogues: cytokine secretion by LPS-stimulated BMDCs
Type: cell-based, Balb/c mice
Settings: Table 3; BMDCs, 25 uM compound 1 hour prior to 100 ng/ml LPS, supernatants after 24 hours
Method: FIG. 2: In vitro results: Bone marrow dendritic cells (BMDCs) were cultured in vitro and plated at 1×10^6 cells per ml. The BMDCs were conditioned with 25 uM oleamide 1 hour prior to stimulation with 100 ng/ml LPS (E. coli serotype R515). After 24 hours, the supernatants were removed and analysed for cytokine levels of IL-12p40, IL-12p70, IL-23 and TNF-alpha using specific immunoassays. (n=9)
FIGS. 4(A) to 4(G): In vitro Results: Bone marrow dendritic cells (BMDCs) were cultured in vitro and plated at 1×10^6 cells/ml. The BMDCs were conditioned with oleamide or its family of analogues at a concentration of 25 uM 1 hour prior to stimulation with 100 ng/ml LPS (E. coli serotype R515). After 24 hours, the supernatants were removed and analysed for levels of IL-12p40, IL-12p70, IL-23 and TNF-alpha using specific immunoassays. (n=9)
FIG. 6: Bone marrow-derived dendritic cells (BMDCs) were cultured in vitro and plated at 1×10^6 cells/ml. The BMDCs were conditioned with analogues of oleamide (compounds 19.2, 20.1, 36.2, 37.1 or 39.1) at a concentration of 25 μM 1 hour prior to stimulation with 100 ng/ml LPS (E. coli serotype R515). After 24 hours, the supernatants were removed and analysed for levels of IL-12p40, IL-12p70, IL-23 and TNF-alpha using specific immunoassays. (n=9)
FIG. 7: Bone marrow-derived dendritic cells (BMDCs) were cultured in vitro and plated at 1×10^6 cells/ml. The BMDCs were conditioned with analogues of oleamide (compounds 18.2, 21.2, 22.2, 23.2, 33.1 or 34.1 in panel A and 35.1, 38.1, 50.2 in panel B) at a concentration of 25 μM 1 hour prior to stimulation with 100 ng/ml LPS (E. coli serotype R515). After 24 hours, the supernatants were removed and analysed for levels of IL-12p40, IL-12p70, IL-23 and TNF-alpha using specific immunoassays. (n=9)
The concentration of cytokines in cell supernatants was determined using ELISA Duoset kits from R&D Systems in accordance with the manufacturers' instructions. Briefly, 100 μl/well of capture antibody (diluted to the appropriate concentration in PBS) was added to an ELISA plate (Nunc) and incubated overnight at room temperature. Plates were then washed three times with Wash Buffer (PBS+0.05% Tween-20) and blocked by adding 300 μl of Blocking buffer (1% (w/v) BSA/PBS) for a minimum of 1 h at room temperature. The washing step was repeated and 100 μl of samples and standards (diluted to appropriate concentrations) were added per well, in triplicate. Plates were then incubated at 2-4° C. overnight. The next day, plates were washed again and 100 μl of the biotinylated detection antibody was added to each well and incubated for 2 hours at room temperature. 100 μl of Streptavidin-horseradish-peroxidase (R&D Systems) was then added to each well, following another wash step. Plates were incubated for 20 min at room temperature. After the last washing step, 100 μl of tetramethylbenzidine (BD Biosciences) was added to each well and plates were left in the dark for 20 minutes or until a blue colour developed. Colour development was stopped by adding 50 μl of 1M sulphuric acid (Sigma-Aldrich) to the wells. The optical density was determined at 450 nm, using a VersaMax™ microplate reader (Molecular Devices). For each set of samples, a standard curve was generated and the values of unknown samples were calculated from the standard curve.
Bone marrow derived dendritic cells (BMDCs) were cultured as follows:
(Day 1) Bone marrow cells were harvested from the femur and tibia of Balb/c female mice by flushing the bone with RPMI 1640 complete media [supplemented with 10% foetal calf serum and 2% Penicilin-Steptomycin (Life Technologies, Ireland)] using a 27 gauge needle attached to a 10 ml syringe. The bone marrow cells were collected into a 50-ml Falcon tube and centrifuged at 1200 RPM for 5 minutes. […]

Compound	+LPS IL-12p40	+LPS IL-12p70	+LPS IL-23	+LPS TNF-α
CCCCCCCC/C=C\CCCCCCCC(=O)NCc1ccc(C(F)(F)F)cc1 [Compound 33-1, N-(4-(trifluoromethyl)benzyl)oleamide]	↑	↑	→	→
CCCCCCCC/C=C\CCCCCCCC(=O)Nc1ccc(N(C)C)cc1 [Compound 19-2, N-(4-(dimethylamino)phenyl)oleamide]	→	→	→	→
NC(=O)COCCCOCc1ccccc1 [Compound 51-2, 2-(3-(benzyloxy)propoxy) acetamide]	↓	↓	↓	→
CCCCCCCC/C=C\CCCCCCCC(=O)NCc1ccccc1OC [Compound 23-2, N-(2-methoxybenzyl) oleamide]	↑	→	↓	→
NC(=O)COCCCCOc1ccccc1 [Compound 50-2, 2-(4-phenoxybutoxy) acetamide]	→	→	↓	→
CCCCCCCC/C=C\CCCCCCCC(=O)NCc1cccc(OC)c1 [Compound 22-2, N-(3-methoxybenzyl) oleamide]	↑	↑	↓	→
CCCCCCCC/C=C\CCCCCCCC(=O)Nc1ccc2ccccc2n1 [Compound 36-2, N-(quinolin-2-yl) oleamide]	↓	↓	↓	↓
CCCCCCCC/C=C\CCCCCCCC(=O)NCc1ccccc1C(F)(F)F [Compound 35-1, N-(2-(trifluoromethyl)benzyl)oleamide]	→	→	↓	→
CCCCCCCC/C=C\CCCCCCCC(=O)Nc1ccccn1 [Compound 37-1, N-(pyridin-2-yl) oleamide]	→	→	↓	↓
CCCCCCCC/C=C\CCCCCCCC(=O)NCc1ccccc1 [Compound 18-2, N-benzyloleamide]	↑	↑	→	→
CCCCCCCC/C=C\CCCCCCCC(=O)Nc1ccncc1 [Compound 39-1, N-(pyridin-4-yl) oleamide]	↓	↓	→	→
CCCCCCCC/C=C\CCCCCCCC(=O)NCc1ccc(OC)cc1 [Compound 21-2, N-(4-methoxybenzyl) oleamide]	↑	↑	↓	→
CCCCCCCC/C=C\CCCCCCCC(N)=O [Ole, 9(Z)-Octadecenamide]	↓	↓	↓	→
CCCCCCCC/C=C\CCCCCCCC(=O)Nc1cccnc1 [Compound 38-1, N-(pyridin-3-yl) oleamide]	↓	→	↓	→
CCCCCCCC/C=C\CCCCCCCC(=O)NCc1cccc(C(F)(F)F)c1 [Compound 34-1, N-(3-(trifluoromethyl)benzyl)oleamide]	↑	→	↓	→
CCCCCCCC/C=C\CCCCCCCC(=O)Nc1ccc(N(CC)CC)cc1 [Compound 20-1, N-(4-(diethylamino)phenyl)oleamide]	→	↓	→	→

Same assay, conditions: summary statement on the cytokine tables

Compound	immunomodulatory effect
CCCCC/C=C\C/C=C\CCCCCCCC(N)=O [linoleamide]	immunomodulatory effect
CCCCCCCCCCCCCCCCCC(N)=O [stearamide]	immunomodulatory effect
CCCCCC/C=C\CCCCCCCC(N)=O [palmitoleamide]	immunomodulatory effect
CCCCC/C=C\C/C=C\C/C=C\C/C=C\CCCC(N)=O [arachidonamide]	immunomodulatory effect
CCCCCCCCCCCCCCCC(N)=O [palmitamide]	immunomodulatory effect
CC/C=C\C/C=C\C/C=C\CCCCCCCC(N)=O [linolenamide]	immunomodulatory effect
CCCCCCCC/C=C\CCCCCCCC(N)=O [Ole, 9(Z)-Octadecenamide]	immunomodulatory effect

Test system: BV2 murine microglial cells
Assay: not given
Settings: lipopolysaccharide-stimulated neuronal microglia; cited from earlier work

Compound	activation of p38, ERK, PI3-kinase/Akt, ROS accumulation and NF-κB activation	pro-inflammatory mediators
CCCCCCCC/C=C\CCCCCCCC(N)=O [Ole, 9(Z)-Octadecenamide]	blocks activation	suppressor of pro-inflammatory mediators
